SMILES strings stand for the structures. Like-named read-outs stand apart in the source and are kept apart here.

The results in this text go back to patent publication US12338203B2 (TAISHO PHARMACEUTICAL CO., LTD., priority 2019, dated 2025).

In this assay the target is T1, human LPAR1 (Homo sapiens, UniProt Q92633).
T1 construct: expressed in transfected cells
The assay can be described thus: Test Example 1: antagonism against response of LPA-induced increase in intracellular Ca2+ concentration in RH7777 cells stably expressing human LPAR1. In kind it is cell-based. As for the experimental part: (1) Preparation of RH7777 cells stably expressing human LPAR1
The human LPAR1 expression vector was transfected into RH7777 cells to acquire human LPAR1 expressing cells.
(2) Test of antagonism against response of LPA-induced increase in intracellular Ca^2+ concentration
Cells stably expressing human LPAR1 were used for a test of antagonism against response of LPA-induced increase in intracellular Ca^2+ concentration.
The cells were seeded onto the Poly-D-Lysine 96 well black plate and incubated overnight. […] 50 μL of the Basal Buffer (1×HBSS, 20 mM HEPES, 2.5 mM Probenecid, 0.05% BSA, 0.25 mg/mL Amaranth, pH 7.4) containing the test compound was added thereto, followed by incubation at 37° C. for 30 minutes. In FDSS6000 (Hamamatsu Photonics K.K.), LPAs were added, and the change in intracellular Ca^2+ concentration was detected using the fluorescence value of a wavelength of 540 nm by an excitation wavelength of 480 nm as an indicator. […] The Rmax under […] without the test compound was used as the control value. The Rmax under Basal Buffer stimulation with no LPAs or test compounds was used as the basal value.
The percentage (%) of increase in intracellular Ca^2+ concentration was calculated by dividing the value obtained by subtracting the basal value from Rmax in the presence of LPAs and each concentration of the test compound by the value obtained by subtracting the basal value from the control value. The concentration of each test compound was plotted on the X axis and the percentage (%) of increase in intracellular Ca^2+ concentration was plotted on the Y axis, and the IC50 value was calculated by nonlinear regression using XLfit.

The mark [1] stands for this setting: RH7777 cells stably expressing human LPAR1, Fluo-4 fluorescence, FDSS6000, read-out: IC50 value (concentration producing 50% antagonism against response of LPA-induced increase in intracellular Ca2+ concentration) (converted).

T1 sequence (Q92633 whole entry): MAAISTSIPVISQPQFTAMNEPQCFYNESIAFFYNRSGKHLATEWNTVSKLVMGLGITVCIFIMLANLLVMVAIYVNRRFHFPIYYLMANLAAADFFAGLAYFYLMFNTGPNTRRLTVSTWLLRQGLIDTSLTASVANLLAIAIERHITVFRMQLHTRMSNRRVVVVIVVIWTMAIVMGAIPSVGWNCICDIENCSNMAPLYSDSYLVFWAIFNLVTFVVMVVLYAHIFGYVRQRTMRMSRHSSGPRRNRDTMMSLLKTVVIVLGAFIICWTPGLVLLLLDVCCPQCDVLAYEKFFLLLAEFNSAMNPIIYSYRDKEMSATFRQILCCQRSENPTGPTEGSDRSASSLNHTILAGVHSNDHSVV

Take `CCOc1cc([C@@H](C)N(CCCC(F)(F)c2ccccc2)C(=O)N[C@]2(C(=O)O)C[C@@H](OCC)C2)cc(OCC)c1C(C)=O` [Example 4-44, Trans-1-({[(1R)-1-(4-Acetyl-3,5-Diethoxyphenyl)Ethyl](4,4-Difluoro-4-Phenylbutyl) Carbamoyl}Amino)-3-Ethoxycyclobutane-1-Carboxylic Acid]: the IC50 under setting [1] was 3.34 nM. With `CCCOc1cc(OC)cc(C(C)N(CCCCc2ccccc2)C(=O)NC2(C(=O)O)CC(F)(F)C2)c1` (centres unmarked) [Example 5-16], the IC50 under setting [1] is 8.97 nM. On the same count and under the same terms, for `CCO[C@H]1C[C@@](NC(=O)N(CCO[C@@H](C)c2ccccc2)C(C)c2cc(OC)c(C(C)=O)c(OC)c2)(C(=O)O)C1` (some centres unmarked) [Example 5-126] the value was 26.1 nM.

For the molecule `CCCCC(NC(=O)N(CCCCc1ccccc1)Cc1cc(OC)c(C)c(OC)c1)C(=O)O` (centres unmarked) [Example 1-3], the IC50 turned out to be 1800 nM.

Take `CCOc1cc(C(C)N(CCCCc2ccccc2)C(=O)NC2(C(=O)O)CC(C)(C)C2)cc(OCC)c1C(C)=O` (centres unmarked) [Example 1-84]: the IC50 under setting [1] is 3.12 nM. Regarding `CCNc1cc(C(C)N(CCCCc2ccccc2)C(=O)NC2(C(=O)O)CC(F)(F)C2)cc(OCC)c1C(C)=O` (centres unmarked) [Example 5-102], the IC50 under setting [1] is 7.35 nM. In the case of `CCOc1cc(OCC)nc(C(C)N(CCCCc2ccccc2)C(=O)NC2(C(=O)O)CC(F)(F)C2)c1` (centres unmarked) [Example 5-85, 1-({[1-(4,6-Diethoxypyridin-2-Yl)Ethyl](4-Phenylbutyl) Carbamoyl}Amino)-3,3-Difluorocyclobutane-1-Carboxylic Acid], the IC50 under setting [1] is 5.12 nM. On to `COc1cc(C(C)N(CCOCc2ccccc2)C(=O)NC2(C(=O)O)CCOCC2)cc(OC)c1C1CC1` (centres unmarked) [Example 5-173], for which the IC50 under setting [1] was 34.7 nM. With `CCOc1cc(C(C)N(CCOCc2ccccc2)C(=O)NC2(C(=O)O)CCC2)c(C)c(OCC)c1C` (centres unmarked) [Example 5-193], the IC50 under setting [1] was 2 nM. `CCOc1cc([C@@H](C)N(CCCC(F)(F)c2ccccc2)C(=O)NC2(C(=O)O)CCC2)cc(OCC)c1C(C)O` (some centres unmarked) [Example 4-53]: the IC50 under setting [1] is 1.72 nM. Turning to `CCOc1cc([C@@H](C)N(CCCCc2ccccc2)C(=O)NC2(C(=O)O)CCC2)cc(OCC)c1C(C)O` (single isomer, unassigned) [Example 1-21], the IC50 under setting [1] is 3.38 nM. Turning to `CCOc1cc(C(C)N(CCOCc2ccccc2)C(=O)NC2(C(=O)O)CC(F)(F)C2)c(Cl)c(OCC)c1C1CC1` (centres unmarked) [Example 5-197], the IC50 under setting [1] was 1.04 nM. The same measure, in the same setting: for `CCOc1cc(C(C)N(CCCCc2ccccc2)C(=O)NC(Cc2cccnc2)C(=O)O)cc(OCC)c1C` (centres unmarked) [Example 1-10] the value was 88.5 nM; for `CCOc1cc(C(C)N(CCCCc2ccccc2)C(=O)NC2(c3nn[nH]n3)CC(F)(F)C2)c(Cl)c(OCC)c1C(C)=O` (centres unmarked) [10-8], 9.3 nM. Regarding `CCOc1cc([C@@H](C)N(CCCCc2ccccc2)C(=O)NC2(C(=O)O)CCC2)cc(OCC)c1C` [Example 1-24], the IC50 under setting [1] is 3.54 nM. `COc1cc(C(C)N(CCOCc2ccccc2)C(=O)NC2(C(=O)O)CCOCC2)c(C)c(OC)c1C1CC1` (centres unmarked) [Example 5-177]: the IC50 under setting [1] was 2.77 nM. As for `COc1cc([C@@H](C)N(CCOCc2ccccc2)C(=O)NC2(C(=O)O)CC(OC)C2)cc(OC)c1C(C)=O` (some centres unmarked) [Example 5-121], the IC50 under setting [1] is 12.1 nM.

For `CCOc1c(C(C)=O)ccc([C@@H](C)N(CCCC(F)(F)c2ccccc2)C(=O)NC2(C(=O)O)CC2)c1C` [Example 4-49], the IC50 under setting [1] is 4.94 nM. Turning to `CCOc1cc(C(C)N(CCOCc2ccccc2)C(=O)NC2(C(=O)O)CCC2)c(C)c(OCC)c1C(C)=O` (centres unmarked) [Example 5-191], the IC50 under setting [1] was 1.45 nM.

With `CCOc1cc([C@@H](C)N(CCCCc2ccccc2)C(=O)NC2CCC[C@@H]2C(=O)O)cc(OCC)c1C(C)=O` (some centres unmarked) [Example 1-134], under setting [1], the IC50 was 14.5 nM.

In the case of `CC(c1ccc(C#N)cc1)N(CCCCc1ccccc1)C(=O)NC1(C(=O)O)CC(F)(F)C1` (centres unmarked) [Example 5-5], under setting [1], the IC50 was 39.7 nM.

With `CCOc1cc(C(C)N(CCO[C@@H](C)c2ccccc2)C(=O)NC2(C(=O)O)CC(OC)C2)c(Cl)c(OCC)c1C1CC1` (some centres unmarked) [Example 5-202], the IC50 under setting [1] was 1.62 nM. For `CCOc1cc(C(C)N(CCO[C@@H](C)c2ccccc2)C(=O)NC2(C(=O)OC)CC(OCC)C2)cc(OCC)c1C(C)=O` (some centres unmarked) [Example 6-4], the IC50 under setting [1] is 344 nM.

Regarding `CCOc1c(C(C)=O)ccc([C@@H](C)N(CCO[C@H](C)c2ccccc2)C(=O)NC2(C(=O)O)CCOCC2)c1C` [Example 4-159], the IC50 under setting [1] was 6.22 nM. As to `CCOc1cc([C@@H](C)N(CCCCc2ccccc2)C(=O)NC2CC(C(=O)O)N(C(C)=O)C2)cc(OCC)c1C(C)=O` (some centres unmarked) [Example 1-164], the IC50 under setting [1] is 38.4 nM. On the same count and under the same terms, for `CCOc1cc([C@@H](C)N(CCOCc2ccccc2)C(=O)NC2(C(=O)O)CC(F)(F)C2)cc(OCC)c1C(C)=O` [Example 4-102] the value was 0.815 nM; for `CCOc1cc([C@@H](C)N(CCCCc2ccccc2)C(=O)NC2(C(=O)O)CC(F)(F)C2)cc(OCC)c1C(C)=O` [Example 1-30, 1-({[(1R)-1-(4-Acetyl-3,5-Diethoxyphenyl)Ethyl](4-Phenylbutyl) Carbamoyl}Amino)-3,3-Difluorocyclobutane-1-Carboxylic Acid], 1.75 nM. Take `CCOc1cc(C(C)N(CCO[C@@H](C)c2ccccc2)C(=O)NC2(C(=O)OC(C)(C)C)CC2)c(Cl)c(OCC)c1C(C)=O` (some centres unmarked) [Example 6-13]: the IC50 under setting [1] is 3040 nM.

For `CCOc1cc([C@@H](C)N(CCC(F)(F)Cc2ccccc2)C(=O)NC2(C(=O)O)CC(OC)C2)cc(OCC)c1C(C)=O` (some centres unmarked) [Example 4-90], the IC50 under setting [1] was 10.1 nM. As to `CCOc1cc([C@@H](C)N(CCCCc2ccccc2)C(=O)NC2CCC(C(=O)O)C2)cc(OCC)c1C` (some centres unmarked) [Example 1-142], the IC50 under setting [1] was 49.2 nM.

Take `CCOc1cc(C(C)N(CCO[C@@H](C)c2ccccc2)C(=O)NC2(C(=O)OC)CC(F)(F)C2)cc(OCC)c1C(C)=O` (some centres unmarked) [Example 6-6]: the IC50 under setting [1] is 435 nM. Same read-out and setting: the same measure for `CCOc1cc(C(C)N(CCOCc2ccccc2)C(=O)NC2(C(=O)O)CC(OCC)C2)cc(OCC)c1C1CC1` (centres unmarked) [Example 5-219]: 0.813 nM; for `CCOc1cc(C(C)N(CCOCc2ccccc2)C(=O)NC2(C(=O)O)CC(OCC)C2)c(C)c(OCC)c1C1CC1` (centres unmarked) [Example 5-215]: 1.01 nM.

For the molecule `COc1cc(C(C)N(CCOCc2ccccc2)C(=O)NC2(C(=O)O)CCOCC2)c(Cl)c(OC)c1C(C)=O` (centres unmarked) [Example 5-174], under setting [1], the IC50 is 30 nM. In the case of `COc1cc(C(C)N(CCCCc2ccccc2)C(=O)NC2(C(=O)O)CCCC2)cc(OC)c1C` (centres unmarked) [Example 1-116], the IC50 under setting [1] is 57.4 nM. For the molecule `CCOc1cncc(C(C)N(CCCCc2ccccc2)C(=O)NC2(C(=O)O)CC(F)(F)C2)c1` (centres unmarked) [Example 5-89], under setting [1], the IC50 was 55.3 nM. On the same count and under the same terms, for `CCOc1cc([C@@H](C)N(CCCC(F)(F)c2ccccc2)C(=O)NC2(C(=O)O)CC(F)(F)C2)cc(OCC)c1C(C)=O` [Example 4-56] the value was 1.33 nM; for `CCOc1cc(C(C)N(CCCCc2ccccc2)C(=O)NC2(C(=O)O)CC(F)(F)C2)cc(OCC)c1C(O)CC` (centres unmarked) [Example 1-33], 7.13 nM; for `COc1cc(C(C)N(CCOCc2ccccc2)C(=O)NC2(C(=O)O)CCC2)c(Cl)c(OC)c1C(C)=O` (centres unmarked) [Example 5-132], 4.97 nM. Still for that read-out and setting: the same measure for `CCOc1cc([C@@H](C)N(CCC2Cc3ccccc3C2)C(=O)NC2(C(=O)O)CC(OC)C2)c(C)c(OCC)c1C(C)=O` (some centres unmarked) [Example 4-24]: 5.57 nM.

On to `CCOc1cc([C@@H](C)N(CCOCc2ccccc2)C(=O)NC2(C(=O)O)CC(F)(F)C2)c(Cl)c(OCC)c1C(C)=O` [Example 5-38], for which, under setting [1], the IC50 is 0.468 nM. The same measure, in the same setting: for `CCOc1c(C(C)=O)ccc([C@@H](C)N(CCCCc2ccccc2)C(=O)NC2(C(=O)O)CC(OC)C2)c1C` (some centres unmarked) [Example 1-93] the value was 4 nM; for `CCOc1c(C(C)=O)ccc([C@@H](C)N(CCO[C@H](C)c2ccccc2)C(=O)NC2(C(=O)O)CC(OCC)C2)c1C` (some centres unmarked) [Example 4-157], 3.71 nM.

`CCOc1c(C2CC2)ccc([C@@H](C)N(CCOC(C)c2ccccc2)C(=O)NC2(C(=O)O)CC(F)(F)C2)c1C` (some centres unmarked) [Example 4-167]: the IC50 under setting [1] is 2.5 nM. For `CCOc1cc(C(C)N(CCOCc2ccccc2)C(=O)NC2(C(=O)O)CCC2)c(Cl)c(OCC)c1C1CC1` (centres unmarked) [Example 5-190], the IC50 under setting [1] was 0.817 nM. `CCOc1cc(C(C)N(CCCCc2ccccc2)C(=O)NC2(C(=O)O)CC(F)(F)C2)cc(OCC)c1C#N` (centres unmarked) [Example 1-41]: the IC50 under setting [1] is 6.15 nM. For the molecule `CCOc1cc(C(C)N(CCCCc2ccccc2)C(=O)NC2(C(=O)O)CC(F)(F)C2)cc(OCC)c1S(C)(=O)=O` (centres unmarked) [Example 1-57], under setting [1], the IC50 was 26.6 nM.

`COc1cc(C(C)N(CCO[C@@H](C)c2ccccc2)C(=O)NC2(C(=O)O)CC(F)(F)C2)c(C)c(OC)c1C1CC1` (some centres unmarked) [Example 5-150]: under setting [1], the IC50 was 3.37 nM.

For `COc1cc([C@@H](C)N(CCOCc2ccccc2)C(=O)NC2(C(=O)O)CC(OC)C2)c(Cl)c(OC)c1C(C)=O` (some centres unmarked) [Example 5-123], under setting [1], the IC50 was 4.33 nM. `CCOc1c(C(C)=O)ccc([C@@H](C)N(CCO[C@@H](C)c2ccccc2)C(=O)NC2(C(=O)O)CC(F)(F)C2)c1C` [Example 4-119]: the IC50 under setting [1] was 3.13 nM.
